Measured values: paper PMC10482691, “LTP induction by structural rather than enzymatic functions of CaMKII” (Nature, 2023)
“And” between values parts separate entries of the source, which are not always exact repeats. Identical values can stand only once.

Assays:
cKit(h) = cKit(h) (Homo sapiens, UniProt P10721); experiment: Kinase selectivity panel (residual activity at 1 μM); assay type: biochemical; conditions: inhibitor at 1 μM; read-out: residual kinase activity in % of maximal activity
[1] = tested on: GFP–paCaMKII T286A in hippocampal neurons; experiment: paCaMKII T286A photoactivation: synaptic enrichment in hippocampal neurons; assay type: cell-based
Description: Neurons were wrapped in aluminium foil immediately following transfection and only exposed to red light in imaging. One image was then taken of each neuron to serve as a pre-photoactivation baseline. Immediately following this baseline image, paCaMKII was globally photoactivated with a 405 nm laser pulse (100 ms exposure, 75% laser power) once every 10 s for a total of 60 s. Neurons were then imaged 15 min after stimulation and assessed for CaMKII synaptic enrichment and dendritic spine growth.
Neuronal cultures were transfected on DIV 15–18 and imaged 24–48 h later. […] Two-dimensional maximum-intensity projection images were then generated and analysed using a custom-build programme in ImageJ. The programme utilizes combinatorial thresholding to mask regions of the cell that contain high-intensity puncta of postsynaptic density protein 95 (PSD95; a marker of the post-synaptic side of excitatory synapses in dendritic spines) and regions of the dendritic shaft that contain no fluorescence intensity of PSD95. As a measure of synaptic enrichment, the ratio of mean CaMKII fluorescence intensity of the PSD95 mask to the mean CaMKII fluorescence intensity in the dendritic shaft mask is measured. Spine growth was assessed by measuring the changes in mCherry cell fill fluorescence intensity within dendritic spine divided by the initial fluorescence intensity (F/F0).

cKit(h), sequence (P10721 26-976): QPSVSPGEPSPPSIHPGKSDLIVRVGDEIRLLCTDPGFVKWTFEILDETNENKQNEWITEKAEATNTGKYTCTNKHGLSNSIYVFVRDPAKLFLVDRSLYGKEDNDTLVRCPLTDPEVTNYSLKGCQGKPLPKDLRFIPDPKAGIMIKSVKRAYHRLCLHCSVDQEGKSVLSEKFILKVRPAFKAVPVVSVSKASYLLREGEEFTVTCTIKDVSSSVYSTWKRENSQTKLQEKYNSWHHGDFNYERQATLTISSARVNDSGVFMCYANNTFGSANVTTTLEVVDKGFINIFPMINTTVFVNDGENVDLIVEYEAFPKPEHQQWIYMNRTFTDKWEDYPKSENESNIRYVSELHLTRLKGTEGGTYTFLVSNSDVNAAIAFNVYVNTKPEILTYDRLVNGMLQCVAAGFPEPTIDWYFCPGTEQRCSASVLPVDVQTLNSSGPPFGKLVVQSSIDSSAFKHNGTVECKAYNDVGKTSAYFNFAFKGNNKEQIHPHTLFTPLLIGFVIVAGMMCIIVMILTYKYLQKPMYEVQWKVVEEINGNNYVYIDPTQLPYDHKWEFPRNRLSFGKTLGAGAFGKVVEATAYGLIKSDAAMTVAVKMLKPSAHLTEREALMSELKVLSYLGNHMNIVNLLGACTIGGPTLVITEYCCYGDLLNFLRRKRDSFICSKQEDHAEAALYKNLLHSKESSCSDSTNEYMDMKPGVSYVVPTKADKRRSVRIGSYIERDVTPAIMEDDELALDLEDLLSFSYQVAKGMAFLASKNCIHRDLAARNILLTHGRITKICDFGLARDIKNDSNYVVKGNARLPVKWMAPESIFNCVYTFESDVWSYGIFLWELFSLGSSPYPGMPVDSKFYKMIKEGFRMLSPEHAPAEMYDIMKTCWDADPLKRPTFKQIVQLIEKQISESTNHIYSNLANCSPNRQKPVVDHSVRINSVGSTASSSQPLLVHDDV

Structure (SMILES): NCCNc1cccc(-c2ccnc3[nH]c4ccccc4c23)c1 [AS283]
- remaining activity at 1 µM (cKit(h)): 50%
- CaMKII movement after photoactivation of paCaMKII T286A ([1]; AS283 10 μM): robust CaMKII movement
- synaptic enrichment after photoactivation (sheet 6b) ([1]; paCaMKII T286A + AS283, individual neurons): 1.441 and 1.27 and 1.593 and 1.399 and 1.769 and 1.014 and 1.25 and 1.28 and 1.281 and 1.778
